A short description of data set [1]: pH stability (integrated fluorescence intensity). The class given is physicochemical. To be noted: pH 3.0–10.0 buffers, 24 h, 10 µM. The protocol:
with 10 µM concentration). pH 3.0~7.0 buffers are sodium hydrogen phosphate and trisodium buffer; pH 7.4~10.0 buffers are phosphate buffered saline. 5BMF was put into different pH buffer with the concentration of 10 µM. 5BMF solutions were taking out at 1, 2, 3, 4, 5, 6, 7, 8, 16, 24 h time point. And their integrated fluorescent intensity (from 450 nm to 650 nm) were measured (excited at 425 nm). All data were analyzed using Origin Pro 9.0 software (OriginLab, Northampton, Massachusetts, USA).
(1 picture or pasted object on this page, not shown here)

Data set [2] is described as follows: Cytotoxicity assay (direct cell counting), NIH-3T3. Type of data set: cell-based. To be noted: mouse; NIH-3T3 normal cells; 3 days incubation, viable cells counted. The protocol:
(§1) Cell culture, imaging, and cytotoxicity assay
(§2) RPMI-1640 medium. NIH/3T3 was cultured in DMEM medium. A549 was cultured in F-12K medium. T24 were cultured in McCoy's 5A medium. All culture mediums were supplemented with 10% fetal bovine serum. The cells were incubated at 37 °C in an atmosphere containing 5% CO 2. […]
(§3) Cytotoxicity assay. All test cell lines were incubated in 96-well plates overnight at a density of 3000 cells/well. The culture medium was replaced with 200 μL of culture medium, into which the testing compound was dispersed at various concentrations (1.95 - 500 μM). After incubating for 3 days, the viable cell numbers were checked and directly counted under microscopy (10X). A minimum of 1mm×1mm area was counted from each of at least three widely separated regions of cell culture. The cell proliferation rate was calculated by the following formula: cell proliferation rate (%) = (average cell number of sample wells / average cell number of control wells) ×100%.
(§4) The intact culture medium was evaluated as a control. […]

In another data set the test system is NSCLC H838 cell. The data set is described as follows: Cytotoxicity assay (direct cell counting), H838. The settings on record: Homo sapiens, NCI-H838, 72 h, H838 cells; 3 days incubation, viable cells counted. Type of data set: cell-based. The protocol:
as §1, §2, §3, §4
All animal experiments were performed in compliance with the Guidelines for the Care and Use of Research Animals as established by the Stanford University Animal Studies Committee. Female athymic nude mice (nu/nu) from 4−6 weeks old were obtained from Charles River Laboratories (Boston, MA, USA) and kept under sterile conditions. 5 × 106 human lung adenocarcinoma

Another data set deals with H2030 NSCLC cell line. Put plainly: Cytotoxicity assay, H2030. Type of data set: cell-based. To be noted: Homo sapiens, NCI-H2030; H2030 cells. The protocol: as §1, §2, §3, §4
A further data set has as its system HCC827 NSCLC cell line. Put plainly: Cytotoxicity assay, HCC827. The class given is cell-based. To be noted: Homo sapiens; HCC827 cells. The method, then:
as §1, §2, §3, §4

Data set [3] deals with human lung cancer HCC827 xenograft. The data set is described as follows: HCC827 s.c. tumor model treatment. The class given is in vivo, nude mice. The method, then: HCC827 s.c. tumor model treatment and imaging
All animal experiments were performed in compliance with the Guidelines for the Care and Use of Research Animals as established by the Stanford University Animal Studies Committee. Female athymic nude mice (nu/nu) from 4−6 weeks old were obtained from Charles River Laboratories (Boston, MA, USA) and kept under sterile conditions. 5 × 106 human lung adenocarcinoma […]
HCC827 cells suspended in 150 µL of PBS were inoculated subcutaneously in the right shoulder […]
When the tumors reached ~3 mm in diameter, the tumor-bearing mice were administered i.v. with 5BMF (dissolved in 150 µL PBS, with 2 µL DMSO) at 15 mg/Kg on days 1, 3, 5, 7, 9, 11, 13, 15, 17, 19, 21. Correspondingly, untreated tumor-bearing mice serving as controls were administered i.v. with 150 µL 1× PBS pH 7.4 (with 2 µL DMSO) on the same days as the treated mice. Ten mice were used for each group. Length and width of the elliptical tumors were measured by Vernier caliper after every intravenous injection. Modified ellipsoid formula ½ (Length × Width2) was used to calculate the tumor size. The tumor growth was calculated with the ratio of final volume (FV) minus initial volume (IV) to initial volume (IV). […]
The tumor tissues and some important organs such as liver, kidney, lung, heart were isolated. After frozen, the specimens sectioned at 5-8 µm and processed for a standard hematoxylin-eosin (H&E) staining. Slides were viewed and photographed with the Nanozoomer Digital Pathology Image […]
The body weights of mice are presented as means ± standard deviation (SD) of n independent measurements. The tumor volumes are presented as means ± standard error of mean (SEM) of n independent measurements. Statistical analysis was performed using a Student’s t-test or Mann-Whitney U test. Statistical significance was assigned for P values <0.05. […]

A further data set concerns H1693 NSCLC cell line. The data set is described as follows: Cytotoxicity assay, H1693. Type of data set: cell-based. The settings on record: Homo sapiens, NCI-H1693; H1693 cells. The method, then: as §1, §2, §3, §4
Data set [4] is described as follows: Relative fluorescence quantum yield. The class given is physicochemical. To be noted: EtOH, relative to rhodamine 6G, excited at 425 nm. The protocol: Quantum yield. The fluorescence quantum yields of F16s were determined according to the […]
Where Φ is the quantum yield, F is the integrated area under the corrected emission spectrum, and A is the absorbance at the excitation wavelength; the subscripts x and s refer to F16s and the standard, respectively. Rhodamine 6G (ΦF = 95%) in ethanol was used as the standard. All F16s and Rhodamine 6G were dissolved in ethanol in 5 different concentrations with the absorbance lower than 0.1 at 425nm. The corresponding 5 different fluorescences of F16s and Rhodamine 6G were excited at 425 nm and the emission spectra from 450 nm to 650 nm were obtained for the following integrated area measurement. All data were analyzed using Origin Pro 9.0 software (OriginLab, Northampton, Massachusetts, USA) to get the F16s final quantum yield. […]

“Also recorded” adds a separate entry of the source.

For `Cc1cc(Br)cc2c(/C=C/c3cc[n+](C)cc3)c[nH]c12` [5BMF], the “decay in buffers of different pH” value in data set [1] is “less than 20%”. In data set [2], the IC50 at 3 days came out at 11 µM. For the same compound, the IC50 in the data set with NSCLC H838 cell is 0.36 µM; with H2030 NSCLC cell line it was 0.102 µM; with HCC827 NSCLC cell line, 1.99 µM; with H1693 NSCLC cell line it was 1.18 µM. In data set [3] (15 mg/kg IV every other day), the “day from which inhibitory tumor growth effects appeared” value stood at 9 days. Also, in data set [3] (15 mg/kg IV every other day, day 1-21, n = 10, PBS control ∼16 times), the “increase of mean tumor volume after the 21 day-treatment period” value is listed as around 2 times. In addition, in data set [3] (15 mg/kg IV, 21 days of treatment), the toxicity to mice result is given as “no obvious toxicity”. Moreover, in data set [3] (15 mg/kg IV, 21 days, p = 0.0426 at day 21), the “tumor growth compared to the PBS treated control group” value is recorded as “significantly suppressed; also recorded: suppressed dramatically; also recorded: decreased dramatically”. Further, the “body weight between control and treated groups” value in data set [3] (15 mg/kg IV, 21 days, p = 0.477) is “no significant difference”. In data set [3] (15 mg/kg IV, over four weeks, compared to control), the “major organs' histologic examination (H&E)” value is “did not reveal any significant microscopic lesions”. In data set [3] (HCC827 tumor, 5BMF-treated), the “tumor pathologic section H&E staining” value is “caused tumor inflammatory cell infiltration, fibrous tissue proliferation, and cell apoptosis”. Moreover, the “Quantum Yield” value in data set [4] is given as 19.7%; in data set [4] (listed as 3) it was “around 20%”.

These data come from publication PMC6836573, “Mitochondria-targeting fluorescent molecules for high efficiency cancer growth inhibition and imaging” (Chemical Science, 2019).
